For series [1], the system named is Mia-Paca-2. In words: 3-D soft agar drug screening, Mia-Paca-2. It is filed as cell-based. The settings on record: Mia-Paca-2, K12C, Pancreatic. On the procedure:
(§1) The technical process of 3-D culture involves preparing molten agar at 1.6% in culture medium and adding serum to 10%. 1 ml of this agar medium is plated per well in a 12 well plate and allowed to set. This is the bottom agar and prevents any cells added to the well from touching the plastic bottom of the plate, ensuring everything remains suspended. Meanwhile the remaining stock of agar medium is kept at 42° C. to prevent setting. Target cells are then trypsinized into a single cell suspension and mixed with normal medium/drug combination. ⅔ volume molten agar medium is then added and the mixture plated onto the bottom agar. The agar/medium sets as it cools, suspending the cells in a 3D environment. Typically, within 2 weeks, tumor spheres (colonies) will form suspended in the agar. The number of colonies, or even the size, may be counted under an inverted microscope and quantified to assay tumor sphere inhibition.
(§2) The compounds synthesized were tested in the 3-D soft agar drug screening, including F3, JAB-6-176 and JAB-8-60. All the compounds tested suppressed 3-D soft agar growth, but had little effect on normal 2-D growth. […] In Table 2, below, are listed different cell lines, with the results of testing F3 in the “REMARKS” column. All the cell lines are common and publicly available from the ATCC repository (www.atcc.org/en/Products/Cells_and_Microorganisms/Cell_Lines.aspx). […]

The subject of series [2] is wild-type RAS driven tumor cells. In words: Soft agar growth of wild-type RAS driven tumor cells. Format: cell-based. On the procedure: (§3) Effects of the small molecule on growth in soft agar of A549 K-RAS driven lung tumor cell line and K-RAS driven pancreatic cancer cell line MiaPaCa-2 is shown. 0=carrier (DMSO). P values are less than 0.05, FIG. 5 and FIG. 6 show the effects of 10 uM of F3 on normal growth/survival in 2-D culture on plastic of the same cells. […] FIG. 7 is a graph showing that F3 is also effective against wild-type driven tumor cells, while FIG. 8 is a graph showing normal growth/survival in 2-D culture on plastic of the same cells.

The test system of series [3] is S462.TY. Briefly: 3-D soft agar drug screening, S462.TY. It is filed as cell-based. To be noted: NF1-mute, MPNST. On the procedure:
as §1, §2

The test system of series [4] is NCI-H441 (Lung cancer) xenograft tumors. Briefly: Tumor inhibition of xenografts, NCI-H441. It is filed as in vivo. The settings on record: NCI-H441 xenograft in NRG mice. The method, then:
(§4) Compound F3 was tested in vivo, using cell line xenograft tumors in NRG mice. Cell lines used included Mia-Paca-2 (Pancreatic cancer), and NCI-H441 (Lung cancer). […] The results for Mia-Paca-2 are shown in FIG. 14 and FIG. 15 ([…] treated with DMSO/PBS (carrier) or F3 drug at 12 mg/kg every three days).

In series [5] the test system is tumor cells. Briefly: 3-D soft agar drug screening (cell line not stated). It is filed as cell-based. The method, then: as §1, §2
Series [6] relates to H1299. In words: 3-D soft agar drug screening, H1299. Format: cell-based. To be noted: H1299, Hras61, Lung. On the procedure: as §1, §2
Series [7] has as its target recombinant K-RAS12v protein (Homo sapiens, UniProt P01116, G12V). In words: Thermofluor direct binding assay. The settings on record: for Thermofluor curve shift (direct binding): 200 uM compound/5 uM protein, K-RAS12v loaded with gamma GTPS. The method, then: Direct binding of F3/F3a derivative to recombinant K-RAS protein. Thermofluor assays were performed to assay whether direct interactions could be detected between recombinant K-RAS protein and compound F3, or recombinant K-RAS protein and compound JAB-6-5. Recombinant K-RAS12v protein was loaded with gamma GTPS and used in binding assays with a ratio of: 200 uM compound/5 uM protein. Control compound C4 is targeted at a different protein and was not expected to bind RAS. The results are the derivative of three assays performed in triplicate. […] A predicted kD can be extrapolated from the curve: ˜25 uM at 55.5° C.
On the technique in general: Differential scanning fluorimetry follows unfolding on heating by fluorescence.

In series [8] the test system is HTB-185. Briefly: 3-D soft agar drug screening, HTB-185. Format: cell-based. The settings on record: HTB-185, DAB2IP deficient, Medulloblastoma. The method, then:
as §1, §2

For series [9], the system named is Mia-Paca-2 cells. Briefly: Anoikis assay on polyHEMA treated wells, trypan blue exclusion. Format: cell-based. To be noted: after 48 hours. On the procedure:
RAS activation leads to resistance to anoikis and inhibiting RAS function re-sensitizes […] cells to anoikis. The RAS/RalGDS pathway has been implicated as a significant component of RAS mediated anoikis suppression. […] After 48 hours the cultures were assayed for cell death by trypan blue exclusion.

For series [10], the system named is K-RAS driven pancreatic cancer cell line MiaPaCa-2. In words: Normal growth/survival in 2-D culture on plastic, MiaPaCa-2. The settings on record: 10 uM. Format: cell-based. The method, then: as §3
In series [11] the test system is HL-60. Briefly: Suspension culture growth, HL-60. Format: cell-based. The settings on record: HL-60, NRASQ61L, AML. On the procedure:
(§5) The compounds synthesized were tested in the 3-D soft agar drug screening, including F3, JAB-6-176 and JAB-8-60. All the compounds tested suppressed 3-D soft agar growth, but had little effect on normal 2-D growth. […] In Table 2, below, are listed different cell lines, with the results of testing F3 in the “REMARKS” column. All the cell lines are common and publicly available from the ATCC repository (www.atcc.org/en/Products/Cells_and_Microorganisms/Cell_Lines.aspx). NF1 mute are cells with defects in the NF1 gene (a negative regulator of RAS) causing hyper-activation of the wild type form of RAS. The same is true for DAB2IP deficient cells. EGFR+++ cells overexpress the EGFR receptor, which also results in the hyper-activation of wild type RAS,

A short description of series [12]: Normal 2-D growth (cell line not stated). It is filed as cell-based. On the procedure:
as §5

Series [13] relates to MDA-MB-231. Briefly: 3-D soft agar drug screening, MDA-MB-231. It is filed as cell-based. The settings on record: MDA-MB-231, Kras13D and deficient for NF1, Breast; cells don't grow well in soft agar. On the procedure: as §1, §2
Series [14] concerns A549 K-RAS driven lung tumor cell line. Briefly: Normal growth/survival in 2-D culture on plastic, A549. It is filed as cell-based. To be noted: 10 uM. On the procedure: as §3
Series [15] concerns Mia-Paca-2 (Pancreatic cancer) xenograft tumors. In words: Tumor inhibition of xenografts, Mia-Paca-2. Format: in vivo, NRG mice. To be noted: Mia-Paca-2 xenograft; 12 mg/kg every three days; P value 0.014. On the procedure:
as §4

Series [16] concerns Panc-1. In words: 3-D soft agar drug screening, Panc-1. It is filed as cell-based. To be noted: Panc-1, K12D, pancreatic. The method, then:
as §1, §2

The test system of series [17] is A375. In words: 3-D soft agar drug screening, A375. The settings on record: A375, B-RAF mute, melanoma; 2 uM. It is filed as cell-based. The method, then:
as §1, §2

For series [18], the system named is CaoV3. Briefly: 3-D soft agar drug screening, CaoV3. Format: cell-based. The settings on record: CaoV3, NF1mute, ovarian. On the procedure:
as §1, §2

A short description of series [19]: Preliminary in vivo toxicity assay. To be noted: i.p. 10 mg/kg every other day for 2 weeks. The arrangement: species or system NRG mice. The method, then: A preliminary in vivo toxicity assay was performed on F3. NRG mice were i.p. injected with 10 mg/kg of drug every other day for 2 weeks.
The subject of series [20] is SK-RC-45. In words: 3-D soft agar drug screening, SK-RC-45. Format: cell-based. The settings on record: SK-RC-45, EGFR++++, kidney. On the procedure:
as §1, §2

Series [21] concerns A549. Briefly: 3-D soft agar drug screening, A549. It is filed as cell-based. The settings on record: A549, K12S, Lung. The method, then:
as §1, §2

pKd: −log10 of the molar value. “Also recorded” adds a separate entry of the source.

Chain of recombinant K-RAS12v protein (P01116 1-185 isoform P01116-2 G12V): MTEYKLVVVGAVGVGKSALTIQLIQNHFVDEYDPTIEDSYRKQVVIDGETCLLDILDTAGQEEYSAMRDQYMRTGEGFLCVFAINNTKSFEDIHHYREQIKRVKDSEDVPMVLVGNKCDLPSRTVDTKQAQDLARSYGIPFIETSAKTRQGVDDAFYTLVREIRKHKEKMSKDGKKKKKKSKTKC

The pKd is −log10 of the Kd, conventionally taken in molar units. As to `Cc1ccc(NC(=O)CN(C)CC(=O)Nc2cccc(F)c2)cc1S(=O)(=O)N1CCCCCC1` [Compound F3, N-(3-(Azepan-1-ylsulfonyl)-4-methylphenyl)-2-((2-((3-fluorophenyl)amino)-2-oxoethyl)(methyl)amino)-acetamide], the Soft agar growth entry was “specific inhibition; also recorded: Soft agar growth inhibited” in series [1]; “Soft agar growth inhibited” in [3]; “Soft agar growth inhibited” in [6]; “Soft agar growth inhibited” in series [8]; “inhibited” in series [13]; “Soft agar growth inhibited” in [16]. For the same compound, the Soft agar growth is 10 uM, no effect at 2 uM in [17]; “Soft agar growth inhibited” in series [18]; “Soft agar growth inhibited” in series [20]; “specific inhibition; also recorded: Soft agar growth inhibited” in series [21]. The “Effect against wild-type driven tumor cells” value in [2] is recorded as “effective”. For the same compound, the “tumor volume as compared to controls” value is given as “reduction in tumor volume” in series [4] and “approximately half the volume” in series [15]. The “3-D soft agar growth” value in series [5] is on record as “suppressed”. Also, the “Thermofluor curve shift (direct binding)” value in [7] is “significant curve shift”. Also, in [7] (at 55.5° C., read-out: predicted kD extrapolated from the curve), the negative logarithm of the Kd (pKd) is approximately 4.60. Moreover, in [9], the “anoikis (cell death by trypan blue exclusion)” value is recorded as “induced high levels of anoikis”. Besides, the “cell growth in 2-D culture on plastic” value in series [10] and in series [14] was “no effect” throughout. The Growth in suspension entry in series [11] was “inhibited”. Further, in series [12], the “normal 2-D growth” value is listed as “little effect”. Further, in series [19], the “signs of pain or distress” value is “No obvious signs of pain or distress”. Besides, the weight loss entry in [19] was “no weight loss”.

Take `Cc1ccc(NC(=O)CN(C)CC(=O)Nc2cccc(F)c2)cc1S(=O)(=O)N1CCCC1` [JAB-6-5]: in [7], the “Thermofluor curve shift (direct binding)” value was “significant curve shift”.

As for `CCCc1ccc(NC(=O)CN(C)CC(=O)Nc2cccc(F)c2)cc1S(=O)(=O)N1CCCCCC1` [JAB-6-176], the “3-D soft agar growth” value in series [5] is on record as “suppressed”. In addition, in series [12], the “normal 2-D growth” value is “little effect”.

(Values after US12582660B2, “Inhibitors of the RAS oncoprotein, methods of making and methods of use thereof” (University of Louisville Research Foundation, Inc., priority 2018, dated 2026).)
